From PubChem BioAssay (NCI)
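Interpolation was linear, between the two tested concentrations surrounding the appropriate level; five concentrations were tested over 48 hours in 96-well plates. TGI denotes the concentration required for complete inhibition of growth.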

Key:
Assay in all cases: DTP human tumour cell line panel, 48 h
HL-60(TB) leukemia = tested on: HL-60(TB) leukemia
A549 NSCLC = tested on: A549 NSCLC
BT-549 breast = tested on: BT-549 breast
MDA-MB-231 breast = tested on: MDA-MB-231 breast
HCT-116 colon = tested on: HCT-116 colon
MCF7 breast = tested on: MCF7 breast
OVCAR-5 ovarian = tested on: OVCAR-5 ovarian
NCI-H460 lung = tested on: NCI-H460 lung
SNB-78 CNS = tested on: SNB-78 CNS
M19-MEL melanoma = tested on: M19-MEL melanoma
DMS 114 small cell lung = tested on: DMS 114 small cell lung
DMS 273 small cell lung = tested on: DMS 273 small cell lung
DLD-1 colon = tested on: DLD-1 colon
KM20L2 colon = tested on: KM20L2 colon
LXFL 529 NSCLC = tested on: LXFL 529 NSCLC

## COc1cc2c(cc1OC)-c1cc3ccccc3c(=O)n1CCC2
HL-60(TB) leukemia
  TGI: 11.5 µM
A549 NSCLC
  TGI: > 100 µM
BT-549 breast
  TGI: 89.2 µM
MDA-MB-231 breast
  TGI: 57.2 µM
HCT-116 colon
  TGI: > 38.6 µM
MCF7 breast
  TGI: > 89.5 µM
OVCAR-5 ovarian
  TGI: > 100 µM
NCI-H460 lung
  TGI: 11.2 µM

## COC(=O)[C@]1(c2cc3ccccc3n2S(=O)(=O)c2ccccc2)CC2CCC1NC2 (stereo partly drawn)
HL-60(TB) leukemia
  TGI: 16.9 µM
A549 NSCLC
  TGI: 25.2 µM
BT-549 breast
  TGI: 32.9 µM
MDA-MB-231 breast
  TGI: 27.1 µM
HCT-116 colon
  TGI: 26.6 µM
MCF7 breast
  TGI: 28 µM
OVCAR-5 ovarian
  TGI: 29.9 µM
NCI-H460 lung
  TGI: 26.9 µM

## Nc1nc(=O)n(C2OC(CO)C(O)C2O)cc1F (stereo not drawn)
A549 NSCLC
  TGI: > 100 µM
SNB-78 CNS
  TGI: > 100 µM
HCT-116 colon
  TGI: > 100 µM
M19-MEL melanoma
  TGI: > 100 µM
DMS 114 small cell lung
  TGI: 3.26 µM
DMS 273 small cell lung
  TGI: > 100 µM
MCF7 breast
  TGI: > 100 µM
OVCAR-5 ovarian
  TGI: > 81.3 µM
DLD-1 colon
  TGI: > 100 µM
KM20L2 colon
  TGI: > 100 µM

## CC(O[Si](C)(C)C(C)(C)C)[C@H](NC(=O)OCC(Cl)(Cl)Cl)C(=O)O (stereo partly drawn)
HL-60(TB) leukemia
  TGI: > 100 µM
A549 NSCLC
  TGI: > 100 µM
BT-549 breast
  TGI: > 100 µM
MDA-MB-231 breast
  TGI: > 100 µM
HCT-116 colon
  TGI: > 100 µM
MCF7 breast
  TGI: > 100 µM
OVCAR-5 ovarian
  TGI: > 100 µM
NCI-H460 lung
  TGI: > 100 µM

## Cc1ccc2c(c1)NC(=O)C(N=[N+]=[N-])(c1ccccc1)C2=O (stereo not drawn)
HL-60(TB) leukemia
  TGI: 37.5 µM
A549 NSCLC
  TGI: > 100 µM
SNB-78 CNS
  TGI: 64.3 µM
HCT-116 colon
  TGI: 79.4 µM
M19-MEL melanoma
  TGI: 40 µM
DMS 114 small cell lung
  TGI: 81.1 µM
DMS 273 small cell lung
  TGI: 28.6 µM
OVCAR-5 ovarian
  TGI: > 100 µM
DLD-1 colon
  TGI: > 100 µM
NCI-H460 lung
  TGI: > 100 µM
LXFL 529 NSCLC
  TGI: 66.1 µM
KM20L2 colon
  TGI: 74.6 µM

## COC(=O)[C@]1(c2cc3ccccc3[nH]2)CC2CN(CC(=O)N(C)OC)C1C1OC(C)(C)OC21 (stereo partly drawn)
HL-60(TB) leukemia
  TGI: 51.4 µM
A549 NSCLC
  TGI: > 100 µM
BT-549 breast
  TGI: > 100 µM
MDA-MB-231 breast
  TGI: > 100 µM
HCT-116 colon
  TGI: > 100 µM
MCF7 breast
  TGI: > 100 µM
OVCAR-5 ovarian
  TGI: > 100 µM
NCI-H460 lung
  TGI: > 100 µM

## CC(C)NC(C)Cc1ccccc1 (stereo not drawn)
HL-60(TB) leukemia
  TGI: > 100 µM
A549 NSCLC
  TGI: > 100 µM
SNB-78 CNS
  TGI: > 100 µM
HCT-116 colon
  TGI: > 100 µM
M19-MEL melanoma
  TGI: > 100 µM
DMS 114 small cell lung
  TGI: > 100 µM
DMS 273 small cell lung
  TGI: > 100 µM
OVCAR-5 ovarian
  TGI: > 100 µM
DLD-1 colon
  TGI: > 100 µM
NCI-H460 lung
  TGI: > 100 µM
LXFL 529 NSCLC
  TGI: > 100 µM
KM20L2 colon
  TGI: > 100 µM

## CCC(C)(C)NC1=C(NC(C)=O)C(=O)c2ccccc2C1=O
HL-60(TB) leukemia
  TGI: 43 µM
A549 NSCLC
  TGI: > 75 µM
SNB-78 CNS
  TGI: > 75 µM
HCT-116 colon
  TGI: > 75 µM
M19-MEL melanoma
  TGI: 23.7 µM
DMS 273 small cell lung
  TGI: > 75 µM
DLD-1 colon
  TGI: > 75 µM
NCI-H460 lung
  TGI: > 75 µM
LXFL 529 NSCLC
  TGI: > 75 µM
KM20L2 colon
  TGI: > 75 µM

## CC1=CCC2(C#N)CCC1C2=O (stereo not drawn)
HL-60(TB) leukemia
  TGI: > 100 µM
A549 NSCLC
  TGI: > 100 µM
SNB-78 CNS
  TGI: > 100 µM
HCT-116 colon
  TGI: > 100 µM
M19-MEL melanoma
  TGI: > 100 µM
DMS 114 small cell lung
  TGI: > 100 µM
OVCAR-5 ovarian
  TGI: > 100 µM
DLD-1 colon
  TGI: > 100 µM
NCI-H460 lung
  TGI: > 100 µM
LXFL 529 NSCLC
  TGI: > 100 µM
KM20L2 colon
  TGI: > 100 µM

## CC[C@H](CCCCC1CC[C@@H]2CC(=O)C[C@H]12)OC (stereo partly drawn)
HL-60(TB) leukemia
  TGI: > 100 µM
A549 NSCLC
  TGI: > 100 µM
BT-549 breast
  TGI: > 100 µM
MDA-MB-231 breast
  TGI: > 100 µM
HCT-116 colon
  TGI: > 100 µM
MCF7 breast
  TGI: > 100 µM
OVCAR-5 ovarian
  TGI: > 100 µM
NCI-H460 lung
  TGI: > 100 µM

## Cc1ccc(S(=O)(=O)n2ccn3c(=O)cc(C)nc23)cc1
HL-60(TB) leukemia
  TGI: > 10 µM
A549 NSCLC
  TGI: > 10 µM
BT-549 breast
  TGI: > 10 µM
MDA-MB-231 breast
  TGI: > 10 µM
HCT-116 colon
  TGI: > 10 µM
MCF7 breast
  TGI: > 10 µM
OVCAR-5 ovarian
  TGI: > 10 µM
NCI-H460 lung
  TGI: > 10 µM
